Results from patent publication US12076304B2, “Compositions comprising 15-HEPE and methods of treating or preventing hematologic disorders, and/or related diseases” (priority 2020, dated 2024).
Entries after “also recorded” stand apart in the source; their conditions may differ.

How the values were obtained:
Assay type in all cases: in vivo
[1] = system: UUO-induced renal interstitial fibrosis; assay: UUO mice: kidney hydroxyproline content; settings: for Kidney hydroxyproline: n = 8
Protocol: Measurement of Kidney Biochemistry: To quantify kidney hydroxyproline content, frozen left kidney samples were processed by an alkaline-acid hydrolysis method as follows: kidney samples were dissolved in 2 normal (N) sodium hydroxide (NaOH) at 65° C. and autoclaved at 121° C. for 20 minutes. The lysed samples (400 μL) were acid-hydrolyzed with 400 μL of 6N hydrochloride acid (HCl) at 121° C. for 20 minutes, and neutralized with 400 μL of 4N NaOH containing 10 mg/mL of activated carbon. An AC buffer (e.g., 2.2M acetic acid/0.48M citric acid, 400 μL) was added to the samples, followed by centrifugation to collect the supernatant. A standard curve of hydroxyproline was constructed with serial dilutions of trans-4-hydroxy-L-proline (Sigma-Aldrich, USA) starting at 16 μg/mL. The prepared samples and standards (e.g., each 400 μL) were mixed with 400 μL chloramine T solution (Wako Pure Chemical Industries, Japan) and incubated for 25 minutes at room temperature. The samples were then mixed with Ehrlich's solution (e.g., 400 μL) and heated at 65° C. for 20 minutes to develop the color. After samples were cooled on ice and centrifuged to remove precipitates, the optical density of each supernatant was measured at 560 nanometers (nm). The concentrations of hydroxyproline were calculated from the hydroxyproline standard curve. Protein concentrations of kidney samples were determined using a bicinchoninic (BCA) protein assay kit (Thermo Fisher Scientific, USA) and used to normalize the calculated hydroxyproline values. Kidney hydroxyproline contents were expressed as microgram (μg) per mg protein.
Sample Collection: For serum samples, non-fasting blood was collected in serum separate tubes without anticoagulant through direct cardiac puncture and centrifuged at 3,500×g for 4 minutes at 4° C. The supernatant was collected and stored at −80° C. for shipping. For kidney samples, the left kidney was collected and cut into 2 pieces horizontally. […] Paraffin blocks were stored at room temperature for histological analyses. […] The anterior part of left kidney was snap frozen in liquid nitrogen and stored at −80° C. for gene expression assay. The posterior part of left kidney was snap frozen in liquid nitrogen and stored at −80° C. for kidney biochemistry.

[2] = system: Collagen Type 1 mRNA; assay: UUO mice kidney quantitative RT-PCR, Collagen Type 1
Protocol: (§1) Quantitative RT-PCR: Total ribonucleic acid (RNA) was extracted from kidney samples using RNAiso (Takara Bio, Japan) according to the manufacturer's instructions. One μg of RNA was reverse-transcribed using a reaction mixture containing […] (mM) of magnesium chloride (MgCl2) (F. Hoffmann-La Roche, Switzerland), 40 U RNase inhibitor (Toyobo, Japan), 0.5 mM dNTP (Promega, USA), 6.28 μM random hexamer (Promega), 5× first strand buffer (Promega), 10 mM dithiothreitol (Invitrogen, USA) and 200 U MMLV-RT (Invitrogen) in a final volume of 20 μL. The reaction was carried out for 1 hour at 37° C., followed by 5 minutes at 99° C. Real-time PCR was performed using real-time PCR DICE and TB Green™ Premix Ex Taq™ II (Takara Bio). To calculate the relative […] (mRNA) expression level, the expression of each gene (e.g., α-SMA, TIMP-1, TGF-β and Collagen Type 1) was normalized to that of reference gene 36B4 (gene symbol: Rplp0). Information regarding the PCR-primer sets and the plate layout are described in Tables 1 and 2.

[3] = system: TIMP-1 mRNA; assay: UUO mice kidney quantitative RT-PCR, TIMP-1
Protocol: as §1

[4] = system: TGF-β mRNA; assay: UUO mice kidney quantitative RT-PCR, TGF-β
Protocol: as §1

[5] = system: UUO mice; assay: UUO mice: body weight, kidney weight, general condition; settings: n = 8
Protocol: UUO Surgery: On day 0 of the study, UUO surgery was performed on mice under pentobarbital sodium anesthesia. The mouse's hair was first shaved and then abdomen cut open to exteriorize the mouse's left ureter. The ureter was ligated 4-0 nylon sutures at two points. The mouse's peritoneum and skin were then closed with sutures, and the mouse transferred to a clean cage until recovered from the anesthesia. Sham operated mice had their left ureter exposed but not ligated. […]
Animals: Seven-week-old female C57BL/6 mice (i.e., animals) were obtained from Japan SLC, Inc. (Japan) and were housed and fed with a normal diet (CE-2; CLEA Japan, Japan) under controlled conditions. The animals were maintained in a specific-pathogen free (SPF) facility under controlled conditions of temperature (e.g., 23±2° C.), humidity (e.g., 45±10%), lighting (e.g., 12-hour artificial light and dark cycles; light from 8:00 to 20:00) and air exchange. A high pressure was maintained in the experimental room to prevent contamination of the facility. The animals were housed in TPX cages (CLEA Japan) with a maximum of 4 mice per cage. Sterilized Paper-Clean (Japan SLC) was used for bedding and replaced once a week. Sterilized solid normal diet was provided ad libitum, being placed in a metal lid on the top of the cage. Pure water was also provided ad libitum from a water bottle equipped with a rubber stopper and a sipper tube. Water bottles were replaced once a week, cleaned, and sterilized in an autoclave and reused. Mice were identified by ear punch and each cage was labeled with a specific identification code.
Animal Monitoring and Sacrifice: The viability, clinical signs and behavior for the mice were monitored daily. Individual body weight was measured daily before treatment during the treatment period. […] The animals were sacrificed by exsanguination through direct cardiac puncture under isoflurane anesthesia (Pfizer Inc.) at Day 14.

[6] = system: UUO-induced renal interstitial fibrosis; assay: UUO mice: Sirius red staining of kidney sections, fibrosis area; settings: for Sirius red-positive area / Sirius red-positive area (%) _Median: UUO mice kidney, Day 14, n = 8; for Sirius red-positive area: mean ± SD; for fibrosis area compared with the Vehicle group: UUO mice
Protocol: Histopathological analysis: To visualize collagen deposition, kidney sections were stained using picro-Sirius red solution (Waldeck, Germany). For quantification of interstitial fibrosis area, bright field images in the corticomedullary region were captured using a digital camera (e.g., DFC295; Leica Microsystems, Germany) at 200-fold magnification, and the positive areas in 5 fields/section were measured using ImageJ software (National Institute of Health, USA).

[7] = 50 mg/kg PO QD Day 0-13, Day 14, mean ± SD
[8] = 500 mg/kg PO QD Day 0-13, Day 14, mean ± SD
[9] = 50 mg/kg PO QD Day 0-13, normalized to 36B4, Sham 1.00, mean ± SD
[10] = 500 mg/kg PO QD Day 0-13, normalized to 36B4, Sham 1.00, mean ± SD
[11] = 50 mg/kg PO QD Day 0-13, Mann-Whitney U test, trend p<0.1, 50 mg/kg
[12] = 5 mg/kg PO QD Day 0-13, Day 14, mean ± SD
[13] = 250 mg/kg PO QD Day 0-13, Day 14, mean ± SD
[14] = 5 mg/kg PO QD Day 0-13, normalized to 36B4, Sham 1.00, mean ± SD
[15] = 250 mg/kg PO QD Day 0-13, normalized to 36B4, Sham 1.00, mean ± SD

## 15-HEPE [DS102]
[1]; [7]
  Kidney hydroxyproline: 8.47 ± 2.08 μg/mg total protein
[1]; 50 mg/kg PO QD Day 0-13, significance p<0.05, 50 mg/kg
  kidney hydroxyproline contents compared with the Vehicle group: significant decrease
[1]; [8]
  Kidney hydroxyproline: 8.59 ± 1.99 μg/mg total protein
[1]; 500 mg/kg PO QD Day 0-13, significance p<0.05
  kidney hydroxyproline contents compared with the Vehicle group: significant decreases
[2]; [9]
  Collagen Type 1 relative mRNA expression level: 11.80 ± 1.78
[2]; [10]
  Collagen Type 1 relative mRNA expression level: 14.09 ± 2.88
[3]; [9]
  TIMP-1 relative mRNA expression level: 138.30 ± 30.39
[3]; [10]
  TIMP-1 relative mRNA expression level: 124.80 ± 28.60
[4]; [9]
  TGF-β relative mRNA expression level: 4.31 ± 0.69
[4]; [10]
  TGF-β relative mRNA expression level: 5.37 ± 0.76
[5]; [7]
  Left Kidney Weight: 469 ± 60 mg
  Right Kidney Weight: 133 ± 10 mg
[5]; [8]
  Left Kidney Weight: 487 ± 108 mg
  Right Kidney Weight: 136 ± 6 mg
[6]; 50 mg/kg PO QD Day 0-13
  Sirius red-positive area: 5.01 ± 3.11%
  Sirius red-positive area (%) _Median: 4.19 ± 3.33%
[6]; 500 mg/kg PO QD Day 0-13
  Sirius red-positive area: 4.01 ± 1.92%
  Sirius red-positive area (%) _Median: 3.08 ± 1.16%
[6]; [11]
  fibrosis area compared with the Vehicle group: tended to decrease; also recorded: reduction trend
[6]; 500 mg/kg PO QD Day 0-13, Mann-Whitney U test, trend p<0.1, 500 mg/kg
  fibrosis area compared with the Vehicle group: tended to decrease; also recorded: reduction trend

## CCCCCC(O)/C=C/C=C\C/C=C\CCCCCCC(=O)O (stereo not drawn) [DS109, 15-HETrE]
[1]; [12]
  Kidney hydroxyproline: 9.94 ± 2.02 μg/mg total protein
[1]; 5 mg/kg PO QD Day 0-13, significance p<0.05
  kidney hydroxyproline contents compared with the Vehicle group: significant decreases
[1]; [7]
  Kidney hydroxyproline: 13.94 ± 6.44 μg/mg total protein
[1]; 50 mg/kg PO QD Day 0-13, significance p<0.05
  kidney hydroxyproline contents compared with the Vehicle group: no significant difference
[1]; [13]
  Kidney hydroxyproline: 8.30 ± 1.04 μg/mg total protein
[1]; 250 mg/kg PO QD Day 0-13, significance p<0.05
  kidney hydroxyproline contents compared with the Vehicle group: significant decreases
[2]; [14]
  Collagen Type 1 relative mRNA expression level: 10.76 ± 1.45
[2]; [9]
  Collagen Type 1 relative mRNA expression level: 15.23 ± 11.52
[2]; [15]
  Collagen Type 1 relative mRNA expression level: 13.88 ± 1.91
[3]; [14]
  TIMP-1 relative mRNA expression level: 153.60 ± 37.12
[3]; [9]
  TIMP-1 relative mRNA expression level: 167.70 ± 122.60
[3]; [15]
  TIMP-1 relative mRNA expression level: 180.90 ± 23.12
[4]; [14]
  TGF-β relative mRNA expression level: 4.29 ± 0.93
[4]; [9]
  TGF-β relative mRNA expression level: 6.01 ± 4.77
[4]; [15]
  TGF-β relative mRNA expression level: 5.48 ± 0.36
[5]; [12]
  Body Weight: 19.1 ± 0.9 g
  Left Kidney Weight: 533 ± 138 mg
  Left Kidney-to-Body Weight Ratio: 2.79 ± 0.65%
  Right Kidney Weight: 137 ± 7 mg
  Right Kidney-to-Body Weight Ratio: 0.71 ± 0.04%
[5]; [7]
  Body Weight: 18.6 ± 0.6 g
  Left Kidney Weight: 523 ± 91 mg
  Left Kidney-to-Body Weight Ratio: 2.83 ± 0.50%
  Right Kidney Weight: 135 ± 6 mg
  Right Kidney-to-Body Weight Ratio: 0.73 ± 0.05%
[5]; [13]
  Body Weight: 18.6 ± 0.7 g
  Left Kidney Weight: 425 ± 105 mg
  Left Kidney-to-Body Weight Ratio: 2.26 ± 0.53%
  Right Kidney Weight: 130 ± 13 mg
  Right Kidney-to-Body Weight Ratio: 0.70 ± 0.05%
[6]; 5 mg/kg PO QD Day 0-13
  Sirius red-positive area: 4.23 ± 1.90%
  Sirius red-positive area (%) _Median: 3.22 ± 1.47%
[6]; 50 mg/kg PO QD Day 0-13
  Sirius red-positive area: 3.58 ± 1.04%
  Sirius red-positive area (%) _Median: 3.28 ± 1.41%
[6]; 250 mg/kg PO QD Day 0-13
  Sirius red-positive area: 4.71 ± 0.96%
  Sirius red-positive area (%) _Median: 3.76 ± 0.81%
[6]; 5 mg/kg PO QD Day 0-13, Mann-Whitney U test, trend p<0.1, 5 mg/kg
  fibrosis area compared with the Vehicle group: tended to decrease; also recorded: reduction trend
[6]; 50 mg/kg PO QD Day 0-13, Bonferroni Multiple Comparison
  fibrosis area compared with the Vehicle group: tended to decrease
[6]; [11]
  fibrosis area compared with the Vehicle group: tended to decrease; also recorded: reduction trend
[6]; 250 mg/kg PO QD Day 0-13, Mann-Whitney U test, trend p<0.1, 250 mg/kg
  fibrosis area compared with the Vehicle group: tended to decrease; also recorded: reduction trend
